The test relates to SMN2-luciferase reporter. Description: SMN2-luciferase reporter qHTS assay. It is filed as cell-based, human. Set-up: key to Curve Class: A curve class of 1.1 is a full agonist/antagonist; a curve class of 4 indicates the compound is inactive. The settings on record: for Curve Class: agonist/antagonist character of the concentration-response, lower values = more significant concentration-response; for Increased SMN2 activity: percent increase (or decrease) in SMN2 levels compared to control in which no test compound is added. An excerpt: A cell-based quantitative high throughput screening (qHTS) assay is used to identify compounds able to increase SMN production. The assay uses a SMN2-luciferase reporter to determine if exon 7 of the SMN gene is expressed, which correlates with increased full-length SMN production from the SMN2 gene. As controls, a homologue SMN1-luciferase reporter cell line looks for variations in expression of the SMN1 gene and a cell line with just the luciferase reporter looks at the capacity of the compounds to inhibit luciferase. In addition, increments in SMN production by lead compounds were confirmed by Western-Blot analysis using SMA patient fibroblasts.
For the qHTS assay, concentration-response profiles are generated at the primary-screen level for each library compound to minimize the number of false positives. A dilution series consisting of seven points separated by five-fold concentration differences is prepared for each compound, yielding a concentration series that spans a range of about four orders of magnitude, for example from a high concentration of 50 micromolar to a low concentration of 3.2 nanomolar and providing adequate data for fitting to a Hill equation. For the assay, the SMN2 reporter cell line was plated at a density of ˜2000 cells/well in complete media (phenol red free DMEM, 10% detacl calf serum, and 1× pen/strep), in 1536 well white solid bottom tissue culture treated plates (Greiner). Cells were allowed to adhere and recover at 37 C in 5% CO2 for 10-12 hours. Compounds were added to the plates by a Pintool (Kalypsys) at a volume of 23 nl/well. Cells were incubated in the presence of compounds for 2 days at 37 C in 5% CO2. In order to quantify luciferase reporter levels, 3 ul/well of OneGlo (Promega) was added to each well and incubated at room temperature for 10 minutes. Luminescence from the reporter in each well is measured using a Viewlux CCD based imager (Perkin Elmer) with an integration time of 30 seconds and a binning of 2× in luminescence mode. Sodium butyrate was used as the positive control compound for luciferase induction and a column of 32 wells of 9.2 mM compound on each plate was used to monitor assay performance.
The SMN reporters used herein are modified from those previously described (M. L. Zhang, C. L. Lorson, E. J. Androphy and J. Zhou, An in vivo reporter system for measuring increased inclusion of exon 7 in SMN2 mRNA: potential therapy of SMA, Gene Ther 8 (2001), pp. 1532-1538.)
The sequence of the SMN1 reporter vector used herein is given in SEQ ID NO.:1, while that of the SMN2 reporter vector is given in SEQ ID NO.:2.
Each of the SMN reporters is constructed from three separate DNA fragments: (1) an SMN promotor sequence from the transcriptional reporter p 4.0T (SMN1) or p3.4C (SMN2) described in Monani, et al. Biochimica et Biophysica Acta 1445 (1999) 330-336; (2) a modification of the firefly luciferase splicing reporter for SMN1 or SMN2 described by Zhang et al; and (3) a 744 bp SMN cDNA fragment.
The 3.7 kB SMN1 promoter fragment is obtained by restriction of p4.0T with BglII and SacII. A 3.4 kB SMN2 promoter fragment is obtained by restriction of p3.4C with KpnI and SacII; a 300 bp BglII/KpnI fragment from p4.0T is then added to the 3.4 kB SMN2 promoter fragment to yield the final 3.7 kB SMN2 promoter fragment.
The modified SMN1 and SMN2 firefly luciferase splicing reporters are obtained by removing 4 kB of intron 6 in the original reporter system by restriction with SmaI/Swa followed by religation of the reporter. A 4 kB luciferase splicing reporter is then obtaind by digestion with XhoI and NotI.
Ths SMN cDNA fragment is obtained by generating the productof a polymerase chain reaction (PCR) on a cDNA preparation using […] (SEQ ID NO:3) as the forward primer and Tatctcgagtggtccagaaggaaatggaggcagcc (SEQ ID NO:4) as the reverse primer. The PCR product is then digested with XhoI and SacII. […]

Regarding `NC(=O)C1CCN(c2nc(-c3ccc(OC(F)(F)F)cc3)cs2)CC1` [Example 95, 1-(4-(4-(Trifluoromethoxy)Phenyl)Thiazol-2-yl)Piperidine-4-Carboxamide], the “Curve Class” value is given as 1.1 and the “Increased SMN2 activity” value stood at 296.8%.

As to `NC(=O)C1CCN(c2nc(-c3ccc(Cl)cc3)cs2)CC1` [Example 20, 1-(4-(4-Chlorophenyl)Thiazol-2-yl)Piperidine-4-Carboxamide], the “Curve Class” value worked out at 1.1 and the “Increased SMN2 activity” value is on record as 380.6%.

For `NC(=O)C1CCN(c2nc(-c3cc4ccccc4o3)cs2)CC1` [Example 68, 1-(4-(Benzofuran-2-yl)Thiazol-2-yl)Piperidine-4-Carboxamide], the “Curve Class” value was determined as 2.1 and the “Increased SMN2 activity” value is recorded as 100%.

`NC(=O)C1CCN(c2nccc(-c3ccc4c(c3)OCCCO4)n2)CC1` [Example 128, 1-(4-(3,4-Dihydro-2H-Benzo[B][1,4]Dioxepin-7-yl)Pyrimidin-2-yl)Piperidine-4-Carboxamide]: the “Curve Class” value came out at 1.1 and the “Increased SMN2 activity” value came to 234.2%.

For `NC(=O)C1CCN(c2nc(-c3ccc4c(c3)OCO4)cs2)CC1` [Example 47, 1-(4-(Benzo[D][1,3]Dioxol-5-yl)Thiazol-2-yl)Piperidine-4-Carboxamide], the “Curve Class” value is recorded as 1.1 and the “Increased SMN2 activity” value is reported as 359.16%.

`COc1ccc(-c2csc(N3CCC(C(N)=O)CC3)n2)cc1` [Example 25, 1-(4-(4-Methoxyphenyl)Thiazol-2-yl)Piperidine-4-Carboxamide]: the “Curve Class” value came out at 2.1 and the “Increased SMN2 activity” value stood at 209.1%.

`CC(=O)c1cccc(-c2csc(N3CCC(C(N)=O)CC3)n2)c1` [Example 55, 1-(4-(3-Acetylphenyl)Thiazol-2-yl)Piperidine-4-Carboxamide]: the “Curve Class” value was 1.1 and the “Increased SMN2 activity” value was 356%.

In the case of `CC(C)Oc1ccc(-c2csc(N3CCC(C(N)=O)CC3)n2)cc1` [Example 91, 1-(4-(4-Isopropoxyphenyl)Thiazol-2-yl)Piperidine-4-Carboxamide], the “Curve Class” value amounted to 1.1 and the “Increased SMN2 activity” value is given as 178.2%.

In the case of `COc1cccc(-c2csc(N3CCC(C(N)=O)CC3)n2)c1` [Example 35, 1-(4-(3-Methoxyphenyl)Thiazol-2-yl)Piperidine-4-Carboxamide], the “Curve Class” value was found to be 1.1 and the “Increased SMN2 activity” value is listed as 357%.

As for `NC(=O)C1CCN(c2nc(-c3ccc4c(c3)OCC4)cs2)CC1` [Example 93, 1-(4-(2,3-Dihydrobenzofuran-6-yl)Thiazol-2-yl)Piperidine-4-Carboxamide], the “Curve Class” value was found to be 2.1 and the “Increased SMN2 activity” value is recorded as 401.7%.

`NC(=O)C1CCN(c2nc(-c3cccc(Cl)c3)cs2)CC1` [Example 34, 1-(4-(3-Chlorophenyl)Thiazol-2-yl)Piperidine-4-Carboxamide]: the “Curve Class” value is 2.2 and the “Increased SMN2 activity” value came out at 53.23%.

Consider `COc1cc(-c2csc(N3CCC(C(N)=O)CC3)n2)cc(OC)c1OC` [Example 84, 1-(4-(3,4,5-Trimethoxyphenyl)Thiazol-2-yl)Piperidine-4-Carboxamide], for which the “Curve Class” value turned out to be 2.2 and the “Increased SMN2 activity” value is recorded as 73.33%.

Consider `NC(=O)C1CCN(c2nccc(-c3ccc4c(c3)OCCO4)n2)CC1` [Example 129, 1-(4-(2,3-Dihydrobenzo[B][1,4]Dioxin-6-yl)Pyrimidin-2-yl)Piperidine-4-Carboxamide], for which the “Curve Class” value was 1.1 and the “Increased SMN2 activity” value is 364.3%.

For `N#Cc1ccc(-c2csc(N3CCC(C(N)=O)CC3)n2)cc1` [Example 18, 1-(4-(4-Cyanophenyl)Thiazol-2-yl)Piperidine-4-Carboxamide], the “Curve Class” value is 2.2 and the “Increased SMN2 activity” value stood at 48.75%.

Turning to `CN(C)c1cccc(-c2ncnc(N3CCC(C(N)=O)CC3)n2)c1` [Example 145, 1-(4-(3-(Dimethylamino)Phenyl)-1,3,5-Triazin-2-yl)Piperidine-4-Carboxamide], the “Curve Class” value is 1.1 and the “Increased SMN2 activity” value amounted to 199.9%.

`NC(=O)C1CCN(c2nc(-c3cccs3)cs2)CC1` [Example 51, 1-(4-(Thiophen-2-yl)Thiazol-2-yl)Piperidine-4-Carboxamide]: the “Curve Class” value is listed as 2.2 and the “Increased SMN2 activity” value is 50.93%.

On to `NC(=O)C1CCN(c2nccc(-c3ccc(Br)cc3)n2)CC1` [Example 80, 1-(4-(4-Bromophenyl)Pyrimidin-2-yl)Piperidine-4-Carboxamide], for which the “Curve Class” value turned out to be 1.1 and the “Increased SMN2 activity” value was 387%.

Take `CN(C)C(=O)c1cccc(-c2csc(N3CCC(C(N)=O)CC3)n2)c1` [Example 62, 1-(4-(3-(Dimethylcarbamoyl)Phenyl)Thiazol-2-yl)Piperidine-4-Carboxamide]: the “Curve Class” value was 2.2 and the “Increased SMN2 activity” value is 51.18%.

Turning to `NC(=O)C1CCN(c2nc(-c3ccccc3N)cs2)CC1` [Example 53, 1-(4-(2-Aminophenyl)Thiazol-2-yl)Piperidine-4-Carboxamide], the “Curve Class” value came to 3 and the “Increased SMN2 activity” value is recorded as 79.57%.

Consider `NC(=O)C1CCN(c2ncc(-c3cccc(N4CCCCC4)c3)s2)CC1` [Example 138, 1-(5-(3-(Piperidin-1-yl)Phenyl)Thiazol-2-yl)Piperidine-4-Carboxamide], for which the “Curve Class” value amounted to 1.1 and the “Increased SMN2 activity” value is 565.6%.

As for `Cc1cccc(-c2csc(N3CCC(C(N)=O)CC3)n2)c1` [Example 46, 1-(4-M-Tolylthiazol-2-yl)Piperidine-4-Carboxamide], the “Curve Class” value is on record as 2.1 and the “Increased SMN2 activity” value turned out to be 187.4%.

With `CCOc1ccc(-c2csc(N3CCC(C(N)=O)CC3)n2)cc1` [Example 96, 1-(4-(4-Ethoxyphenyl)Thiazol-2-yl)Piperidine-4-Carboxamide], the “Curve Class” value was 1.1 and the “Increased SMN2 activity” value was found to be 211.6%.

For `CNC(=O)C1CCN(c2nc(-c3ccc(Br)cc3)cs2)CC1` [Example 70, 1-(4-(4-Bromophenyl)Thiazol-2-yl)-N-Methylpiperidine-4-Carboxamide], the “Curve Class” value came out at 2.1 and the “Increased SMN2 activity” value is 101.9%.

On to `Brc1ccc(-c2csc(N3CCNCC3)n2)cc1` [Example 108, 4-(4-Bromophenyl)-2-(Piperazin-1-yl)Thiazole], for which the “Curve Class” value is −2.1 and the “Increased SMN2 activity” value is reported as −97.29%.

For the compound `N#CC1CCN(c2nc(-c3ccc(Br)cc3)cs2)CC1` [Example 102, 1-(4-(4-Bromophenyl)Thiazol-2-yl)Piperidine-4-Carbonitrile], the “Curve Class” value worked out at 2.2 and the “Increased SMN2 activity” value was found to be 77.87%.

`NC(=O)C1CCN(c2nc(-c3ccc4ccccc4c3)cs2)CC1` [Example 56, 1-(4-(Naphthalen-2-yl)Thiazol-2-yl)Piperidine-4-Carboxamide]: the “Curve Class” value came out at 1.1 and the “Increased SMN2 activity” value worked out at 162%.

As to `CN(C)c1cccc(-c2cnc(N3CCC(C(N)=O)CC3)nc2)c1` [Example 89, 1-(5-(3-(Dimethylamino)Phenyl)Pyrimidin-2-yl)Piperidine-4-Carboxamide], the “Curve Class” value was 1.1 and the “Increased SMN2 activity” value came out at 236.25%.

These data come from US20130096160A1, “ARYLTHIAZOLYL PIPERIDINES AND RELATED COMPOUNDS AS MODULATORS OF SURVIVAL MOTOR NEURON (SMN) PROTEIN PRODUCTION” (Secretary, Department of Health and Human Services, priority 2010, published 2013).
